Active and inactive are the calls of the source.
Key:
[1] = biological target: T1, Scavenger receptor class B member 1 (Mus musculus, UniProt Q61009); assay: inhibitors of SR-BI mediated HDL lipid uptake, dose response, ldlA[mSR-BI] cells, fluorescence, cherry pick (AID 493194); type: functional, cell-based;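 also: cellular uptake of fluorescent DiI-labeled HDL measured as cell fluorescence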
T1 sequence (Q61009 whole entry): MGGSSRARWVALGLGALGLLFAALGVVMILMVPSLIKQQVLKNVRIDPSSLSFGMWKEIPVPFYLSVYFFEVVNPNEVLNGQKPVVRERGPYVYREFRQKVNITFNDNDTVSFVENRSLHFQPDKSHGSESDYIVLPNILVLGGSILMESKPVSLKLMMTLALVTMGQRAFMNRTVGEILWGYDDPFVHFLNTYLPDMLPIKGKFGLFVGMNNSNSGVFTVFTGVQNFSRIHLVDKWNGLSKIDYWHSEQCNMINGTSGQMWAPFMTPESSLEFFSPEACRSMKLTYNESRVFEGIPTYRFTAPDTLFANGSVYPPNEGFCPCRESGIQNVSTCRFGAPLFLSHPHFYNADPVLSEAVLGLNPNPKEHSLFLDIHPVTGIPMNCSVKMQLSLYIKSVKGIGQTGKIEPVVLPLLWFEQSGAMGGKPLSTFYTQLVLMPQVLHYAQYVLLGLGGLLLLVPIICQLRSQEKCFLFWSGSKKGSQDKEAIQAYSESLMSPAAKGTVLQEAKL

Bcl-2-like protein 10 = biological target: T2, Bcl-2-like protein 10 (Homo sapiens, UniProt Q9HD36); assay: displacers of TR3 peptide from Bcl-B, primary screen, selectivity assay for Bfl-1 inhibitor project, biochemical, fluorescence polarization, FITC-TR3 peptide (AID 748);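 also: fluorescence polarization from a fluorescein-labelled TR3 peptide binding purified Bcl-B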
T2 sequence (Q9HD36 whole entry): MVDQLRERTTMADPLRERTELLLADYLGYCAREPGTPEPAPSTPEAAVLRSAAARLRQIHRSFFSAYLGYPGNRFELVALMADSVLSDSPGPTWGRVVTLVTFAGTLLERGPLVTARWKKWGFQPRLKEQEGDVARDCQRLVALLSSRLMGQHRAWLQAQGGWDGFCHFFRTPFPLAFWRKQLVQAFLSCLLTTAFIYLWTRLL

[2] = cytotoxicity toward NIH3T3 fibroblasts, dose response, counter-screen, cell-based, ATP luminescence, mouse fibroblasts (AID 2010); type: functional;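 also: cells exposed to compound for about 90 hours before reading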
[3] = biological target: T3, Aryl hydrocarbon receptor (Homo sapiens, UniProt P35869); assay: Luminescence-based cell-based high throughput dose response assay for activators of the Aryl Hydrocarbon Receptor (AHR). [Related pubchem assays: 2796 (Primary screen (AHR activators in singlicate)), 2845 (Confirmation screen (AHR activators in triplicate)), 434939 (Counterscreen (PXR activators in triplicate)), 2804 (Summary (AHR activators))]; type: ADME
T3 sequence (P35869 whole entry): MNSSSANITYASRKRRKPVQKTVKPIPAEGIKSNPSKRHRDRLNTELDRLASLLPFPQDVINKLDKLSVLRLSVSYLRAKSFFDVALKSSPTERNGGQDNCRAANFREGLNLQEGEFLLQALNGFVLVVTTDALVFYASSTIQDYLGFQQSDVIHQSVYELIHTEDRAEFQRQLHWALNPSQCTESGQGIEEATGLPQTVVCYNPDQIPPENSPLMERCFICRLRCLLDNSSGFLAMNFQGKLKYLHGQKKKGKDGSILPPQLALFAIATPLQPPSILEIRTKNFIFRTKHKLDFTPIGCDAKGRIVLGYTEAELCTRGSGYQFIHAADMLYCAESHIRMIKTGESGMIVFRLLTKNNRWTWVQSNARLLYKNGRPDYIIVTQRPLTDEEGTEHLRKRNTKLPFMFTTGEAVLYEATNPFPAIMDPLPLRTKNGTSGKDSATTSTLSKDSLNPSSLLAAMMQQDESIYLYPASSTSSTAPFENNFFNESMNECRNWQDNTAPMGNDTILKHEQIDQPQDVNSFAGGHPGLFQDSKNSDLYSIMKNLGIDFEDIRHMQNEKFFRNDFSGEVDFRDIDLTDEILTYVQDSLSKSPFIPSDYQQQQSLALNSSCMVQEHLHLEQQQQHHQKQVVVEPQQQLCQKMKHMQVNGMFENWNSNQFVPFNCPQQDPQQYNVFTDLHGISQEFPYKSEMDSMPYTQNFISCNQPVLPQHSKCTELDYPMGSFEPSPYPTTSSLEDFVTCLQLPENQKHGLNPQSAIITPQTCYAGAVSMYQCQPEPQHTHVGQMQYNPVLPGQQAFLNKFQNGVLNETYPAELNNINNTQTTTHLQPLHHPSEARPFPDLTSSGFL

[4] = inhibitors of intracellular T. cruzi replication, confirmation, NIH3T3 host cells, beta-gal luminescence (AID 2044); type: functional, cell-based;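 also: intracellular parasites grown in NIH/3T3 mouse fibroblasts as host cells; luminescent beta-galactosidase reporter signal from transgenic T. cruzi replicating inside host cells; inhibitors lower the luminescence signal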
INS1 = assay: beta cell apoptosis inhibitors, cytokine rescue, dose response, luminescence, retest (AID 449756); type: functional, cell-based; conditions: Rattus norvegicus;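 also: cell death triggered by IL-1 beta plus TNF-alpha plus IFN-gamma mixture; protective hits raise ATP signal compared with cytokine alone wells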
X-box-binding protein 1 = biological target: T4, X-box-binding protein 1 (Homo sapiens, UniProt P17861); type: functional, Cricetulus griseus;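 also: confirmatory dose-response counter-screen serving a CHOP assay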
T4 sequence (P17861 whole entry): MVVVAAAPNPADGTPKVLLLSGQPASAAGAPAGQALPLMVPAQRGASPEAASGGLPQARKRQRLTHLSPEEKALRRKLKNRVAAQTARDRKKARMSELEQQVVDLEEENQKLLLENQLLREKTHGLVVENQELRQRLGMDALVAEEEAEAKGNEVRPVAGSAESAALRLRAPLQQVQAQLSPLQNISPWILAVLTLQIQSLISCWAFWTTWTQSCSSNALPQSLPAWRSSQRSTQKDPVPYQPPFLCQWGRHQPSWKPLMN

[5] = biological target: T5, Corticotropin-releasing factor receptor 2/Corticotropin-releasing factor-binding protein (Homo sapiens, UniProt P24387+Q13324); assay: activators of CRF receptor 2 with binding protein – uHTS hits, confirmation (AID 602473); type: functional; conditions: read-out: EC50_Mean
T5 sequence (Q13324 whole entry): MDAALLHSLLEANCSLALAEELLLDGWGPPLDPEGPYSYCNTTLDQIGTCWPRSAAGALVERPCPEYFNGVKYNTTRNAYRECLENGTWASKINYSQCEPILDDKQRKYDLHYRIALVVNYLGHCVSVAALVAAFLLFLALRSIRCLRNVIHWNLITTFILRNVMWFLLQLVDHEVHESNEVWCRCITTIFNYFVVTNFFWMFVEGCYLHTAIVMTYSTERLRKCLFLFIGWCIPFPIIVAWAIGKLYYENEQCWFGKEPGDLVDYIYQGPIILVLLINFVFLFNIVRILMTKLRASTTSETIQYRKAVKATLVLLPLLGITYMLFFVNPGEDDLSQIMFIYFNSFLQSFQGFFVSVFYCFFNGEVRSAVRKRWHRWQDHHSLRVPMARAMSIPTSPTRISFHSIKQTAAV
T5 sequence (P24387 whole entry): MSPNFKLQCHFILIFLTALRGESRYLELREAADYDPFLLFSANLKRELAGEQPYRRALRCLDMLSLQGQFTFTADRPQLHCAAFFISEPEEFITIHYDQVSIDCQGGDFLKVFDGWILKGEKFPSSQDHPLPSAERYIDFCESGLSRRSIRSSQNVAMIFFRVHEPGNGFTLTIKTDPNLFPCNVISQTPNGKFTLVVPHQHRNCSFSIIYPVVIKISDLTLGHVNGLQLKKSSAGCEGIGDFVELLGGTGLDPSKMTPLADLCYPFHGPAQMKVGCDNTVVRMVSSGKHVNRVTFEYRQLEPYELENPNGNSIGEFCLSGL

[6] = A Cell Based Secondary Assay To Explore Cytotoxicity of Compounds that Sensitize Mycobacterium Tuberculosis to Beta-Lactam Antibiotics.; type: functional
Cytochrome P450 2C9 = Cytochrome P450 2C9 (Homo sapiens, UniProt P11712)
Chain of Cytochrome P450 2C9 (P11712 whole entry): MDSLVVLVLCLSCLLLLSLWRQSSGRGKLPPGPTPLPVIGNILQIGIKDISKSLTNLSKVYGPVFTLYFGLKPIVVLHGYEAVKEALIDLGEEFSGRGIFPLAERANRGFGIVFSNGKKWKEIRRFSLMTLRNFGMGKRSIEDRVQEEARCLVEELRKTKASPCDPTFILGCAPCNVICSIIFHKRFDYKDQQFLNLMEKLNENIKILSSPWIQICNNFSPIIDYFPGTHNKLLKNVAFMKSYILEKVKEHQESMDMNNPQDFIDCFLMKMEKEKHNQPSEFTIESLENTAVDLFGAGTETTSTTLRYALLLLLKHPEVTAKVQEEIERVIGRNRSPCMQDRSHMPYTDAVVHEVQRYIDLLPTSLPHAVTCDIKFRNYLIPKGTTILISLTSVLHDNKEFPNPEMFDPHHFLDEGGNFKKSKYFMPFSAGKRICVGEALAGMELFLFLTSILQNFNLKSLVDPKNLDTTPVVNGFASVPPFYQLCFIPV

Cytochrome P450 1A2 = biological target: T6, Cytochrome P450 1A2 (Homo sapiens, UniProt P05177);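 also: PubChem cytochrome P450 panel assay, CYP1A2 panel member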
T6 sequence (P05177 whole entry): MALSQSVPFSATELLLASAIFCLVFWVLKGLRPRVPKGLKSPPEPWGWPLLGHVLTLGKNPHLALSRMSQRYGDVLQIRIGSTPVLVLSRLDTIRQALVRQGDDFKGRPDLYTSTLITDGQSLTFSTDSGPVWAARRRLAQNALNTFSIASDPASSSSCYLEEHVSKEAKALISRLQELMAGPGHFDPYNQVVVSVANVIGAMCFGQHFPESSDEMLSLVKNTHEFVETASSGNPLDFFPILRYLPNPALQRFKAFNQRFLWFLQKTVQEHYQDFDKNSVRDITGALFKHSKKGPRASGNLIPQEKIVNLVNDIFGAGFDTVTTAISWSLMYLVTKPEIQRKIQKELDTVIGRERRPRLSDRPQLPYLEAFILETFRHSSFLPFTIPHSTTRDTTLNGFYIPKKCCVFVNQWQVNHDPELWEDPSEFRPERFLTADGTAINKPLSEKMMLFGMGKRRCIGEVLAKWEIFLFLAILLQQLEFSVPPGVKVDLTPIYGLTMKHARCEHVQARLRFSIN

[7] = biological target: T7, Heat shock factor protein 1 (Mus musculus, UniProt P38532); assay: inhibition of MG132-induced HSE-luciferase signal, confirmation, cell-based, NIH3T3, luminescence, dose retest (AID 2382); type: functional;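 also: NIH3T3 fibroblasts with HSF1-driven luciferase reporter stressed by proteasome inhibitor MG132; luminescence from HSF1-driven luciferase expression after 8 hours of MG132 stress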
T7 sequence (P38532 whole entry): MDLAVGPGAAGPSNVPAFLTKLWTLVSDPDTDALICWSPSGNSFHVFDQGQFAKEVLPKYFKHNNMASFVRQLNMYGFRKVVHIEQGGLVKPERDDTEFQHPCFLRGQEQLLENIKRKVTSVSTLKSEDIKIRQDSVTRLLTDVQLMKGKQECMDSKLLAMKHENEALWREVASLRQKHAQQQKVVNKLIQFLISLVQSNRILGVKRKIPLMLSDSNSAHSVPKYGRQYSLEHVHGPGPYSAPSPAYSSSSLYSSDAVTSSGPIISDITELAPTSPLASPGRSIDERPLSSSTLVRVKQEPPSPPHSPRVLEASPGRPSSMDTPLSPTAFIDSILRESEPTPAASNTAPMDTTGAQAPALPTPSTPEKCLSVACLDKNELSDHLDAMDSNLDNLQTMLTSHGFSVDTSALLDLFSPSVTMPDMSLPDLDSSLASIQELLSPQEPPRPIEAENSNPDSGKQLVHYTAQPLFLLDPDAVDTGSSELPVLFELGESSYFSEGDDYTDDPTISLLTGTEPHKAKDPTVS

[8] = Luminescence Cell-Based Dose Retest to Confirm Inhibitors of Cancer Stem Cells. [Related pubchem assays (depositor defined):AID2717, AID2721]; type: functional; conditions: Homo sapiens

Nc1ccc(Nc2nc(-c3cccs3)cs2)cc1
AC50 [1]: 8.4 µM (active)

Brc1ccc2ncnc(Nc3ccc(N4CCOCC4)cc3)c2c1
IC50 (Bcl-2-like protein 10): > 50 µM (inactive)
EC50 [2]: > 60 µM (not active)
EC50 [3]: 1.14 µM (active)
EC50 [4]: 0.92 µM (active)

O=C(CN(C(=O)Cn1nnc(-c2ccc(F)cc2)n1)C1CCCC1)NC1CCCC1
AC50 [1]: 0.184 µM (active)

CCCNc1nc(Cl)nc(Nc2ccc(Cl)cc2)n1
EC50 [3]: 3.38 µM (active)

COc1ccc2c(c1)N(C)/C(=C/c1cccc[n+]1C)S2
EC50 (cells): 0.029 µM (active)
EC50 [2]: > 60 µM (not active)
AC50 (INS1): 1.13 µM (active)
EC50 [4]: < 0.1 µM (active)

CCOc1ccc(C2=C/C(=C/c3cccnc3)C(=O)O2)cc1
Absolute IC50 (XBP1) (X-box-binding protein 1): 10 µM

COc1cc(/C=C(/C#N)c2nc(O)c3ccccc3n2)ccc1O
Absolute IC50 (XBP1) (X-box-binding protein 1): 10 µM
EC50 [5]: > 53 µM (inactive)

CC(=O)Nc1ccc(Nc2ncc([N+](=O)[O-])c(Nc3ccc(NC(C)=O)cc3)n2)cc1
CC50 [6]: > 40 µM (active)
AC50 (Cytochrome P450 2C9): 0.355 µM (inconclusive)
AC50 (Cytochrome P450 1A2): 22.4 µM (inconclusive)

Fc1ccccc1N1CCN(C2CCCN(Cc3cccc(C(F)(F)F)c3)C2)CC1 (centres undefined)
EC50 (cells): 0.656 µM (active)
EC50 [2]: > 60 µM (not active)
EC50 [4]: < 0.1 µM (active)

COc1cc(/C=C/c2nc(N)nc(-c3ccccc3O)n2)cc(OC)c1OC
Absolute IC50 (XBP1) (X-box-binding protein 1): 10 µM
EC50 [7]: 36.1 µM (active)

COc1ccc2sc(-c3ccc(N(C)C)cc3)c(C#CC(C)(C)O)c2c1
AC50 [1]: 2.73 µM (active)

COc1cc(/C=N/NC(=O)c2cccnc2)cc2c1OCO2
EC50 [3]: 6.16 µM (active)

CN1CCC(OC(=O)c2ccc(Br)cc2)CC1
EC50 (cells): 0.029 µM (active)
EC50 [2]: > 60 µM (not active)
EC50 [4]: < 0.1 µM (active)

C=CCNCCCOc1ccc(Cl)cc1C(C)(C)C
CC50 [6]: 28.8 µM (active)
AC50 [8]: 16.1 µM (active)

From ChEMBL document CHEMBL1201862, “PubChem BioAssay data set” (2004)
